# Results from PubChem BioAssay (NCI).
# Where “and” joins values, the source holds several entries; their conditions need not be identical. Equal entries are not always repeated.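 Briefly, cells in 96-well plates were exposed to five compound concentrations for 48 h, and endpoints were estimated by linear interpolation. GI50 = concentration required for 50% inhibition of growth. Definition used: TGI = concentration required for complete inhibition of growth.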
# Columns and labels:
# Test in all cases: growth of human tumour cells (NCI), 48 h
# [1] = tested on: BT-549 breast
# [2] = tested on: KM12 colon
# [3] = tested on: LOX IMVI melanoma
# [4] = tested on: HCT-116 colon
# [5] = tested on: HOP-62 NSCLC
# [6] = tested on: IGROV1 ovarian
# [7] = tested on: 786-0 renal
# [8] = tested on: OVCAR-8 ovarian
# [9] = tested on: HOP-92 NSCLC
# [10] = tested on: RPMI-8226 leukemia
SMILES,GI50 [1],TGI [1],GI50 [2],TGI [2],GI50 [3],TGI [3],GI50 [4],TGI [4],GI50 [5],TGI [5],GI50 [6],TGI [6],GI50 [7],TGI [7],GI50 [8],TGI [8],GI50 [9],TGI [9],TGI [10],GI50 [10]
S=C1SCN(Cc2ccccc2)CN1Cc1ccco1,2.91 µM,12.3 µM,1.52 µM,10.6 µM,1.88 µM,10.2 µM,1.47 µM,12.3 µM,5.33 µM,26.8 µM,8.47 µM,26.4 µM,3.5 µM,14.4 µM,5.71 µM,32 µM,2.4 µM,10.9 µM,,
Nc1nc(=S)c2c(ncn2CCO)[nH]1,,,,> 100 µM,,> 100 µM,,> 100 µM,,> 100 µM,,> 100 µM,,> 100 µM,,> 100 µM,,> 100 µM,> 100 µM,
Cc1ccc(S(=O)(=O)NCCCCC(N)C(=O)O)cc1 (stereo not drawn),,> 100 µM,,> 100 µM,,,,> 100 µM,,> 100 µM,,> 100 µM,,> 100 µM,,> 100 µM,,> 100 µM,> 100 µM,
O=[N+]([O-])c1ccc(-c2ccc(C3=Nn4c(CNc5ccccc5Cl)nnc4SC3)o2)cc1,,,,> 100 µM,,> 100 µM,,> 100 µM,,> 100 µM,,> 100 µM,,> 100 µM,,> 100 µM,,> 100 µM,> 100 µM,
CC1NOC(=O)C1N=Nc1ccc(Cl)cc1Cl (stereo not drawn),,,,32.6 µM,,66.1 µM,,52.5 µM,,> 100 µM,,85.7 µM,,41.9 µM,,72 µM,,44.3 µM,,
O=C(O)CN(CCN(CC(=O)O)CC(=O)O)CC(=O)O.[Mn+2],> 100 µM,> 100 µM,> 100 µM,> 100 µM,> 100 µM,> 100 µM,> 100 µM,> 100 µM,> 100 µM,> 100 µM,> 100 µM,> 100 µM,> 100 µM,> 100 µM,> 100 µM,> 100 µM,,,> 100 µM,> 100 µM
CC(=O)O[C@H]1CC2C(C3CC[C@H](C(C)CCC(=O)O)[C@]31C)[C@H](OC(C)=O)C[C@@H]1CC3(CC[C@]21C)OOC1(CCC(C)CC1)OO3 (stereo partly drawn),,15.1 µM and 7.14 µM,5.73 µM and 2.31 µM,19.4 µM and 6.98 µM,,,,13.9 µM and 5.9 µM,,7.39 µM and 3.49 µM,,4.64 µM and 2.76 µM,7.66 µM and 1.81 µM,20.3 µM and 3.81 µM,,14.1 µM and 5.66 µM,10.1 µM and 2.34 µM,23.2 µM and 5.95 µM,6.9 µM and 4.79 µM,
CC(=O)Nc1ccc(C2CC(c3ccc([N+](=O)[O-])cc3)=Nc3ccccc3S2=O)cc1 (stereo not drawn),,,,35.1 µM,,31.8 µM,,,,49.8 µM,,34.7 µM,,22.6 µM,,89.2 µM,,,20.5 µM,
N#CC1CC(c2ccccc2)Nc2cc(Cl)ccc2N1 (stereo not drawn),,,,> 100 µM,,> 100 µM,,> 100 µM,,> 100 µM,,> 100 µM,,> 100 µM,,> 100 µM,,> 100 µM,> 100 µM,
CCc1cccc(CC)c1NC(=O)/C(Cl)=C(/Cl)C(=O)O,,,,> 100 µM,,> 100 µM,,50.3 µM,,> 100 µM,,50.4 µM,,> 56.2 µM,,33.3 µM,,41.4 µM,> 79.4 µM,
